Consider 1 molecule from PMC4658133, “Intrinsic Levanase Activity of Bacillus subtilis 168 Levansucrase (SacB)” (PLoS ONE, 2015).

This assay addresses T1, levansucrase (SacB) (Bacillus subtilis, UniProt P05655).
T1 construct: expressed in Escherichia coli BL21, ion exchange purified
T1 sequence (P05655 30-473): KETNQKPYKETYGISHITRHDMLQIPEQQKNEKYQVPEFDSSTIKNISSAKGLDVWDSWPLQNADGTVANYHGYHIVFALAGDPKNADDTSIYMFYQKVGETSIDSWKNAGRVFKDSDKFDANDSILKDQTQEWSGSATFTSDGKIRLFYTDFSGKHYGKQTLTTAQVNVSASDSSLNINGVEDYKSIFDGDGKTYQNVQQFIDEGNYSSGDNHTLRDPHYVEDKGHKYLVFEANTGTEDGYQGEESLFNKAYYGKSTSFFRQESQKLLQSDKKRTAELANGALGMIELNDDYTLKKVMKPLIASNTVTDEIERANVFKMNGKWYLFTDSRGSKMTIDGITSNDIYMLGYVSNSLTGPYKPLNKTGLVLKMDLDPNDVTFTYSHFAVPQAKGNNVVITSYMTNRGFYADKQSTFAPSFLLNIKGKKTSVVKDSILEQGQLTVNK
As to the kind of experiment: HPAEC-PAD product profile after […] h. It is filed as biochemical. The settings on record: fructosyl acceptor, 127 mM; donor 2.5 mM LMw levan; 50 mM sodium acetate, 1 mM CaCl2, pH 6.0.

Structures are written as SMILES.

On to `OC[C@H]1OC(O)[C@H](O)[C@@H](O)[C@@H]1O` (stereo partly shown) [glucose], for which the “HPAEC-PAD product profile after 5 h” value is recorded as “These profile results from the fructosyl transfer from levan to glucose”.
